# Target: T1, human HAQ STING isoform (hSTING HAQ) (Homo sapiens, UniProt Q86WV6, G230A/H232R/R293Q/R71H)
# T1 construct: THP1 cells express the naturally occurring human HAQ STING isoform (hSTING HAQ); host or cells: THP1
# Experiment: IFN-β mRNA level in THP1 cells (qPCR, STING agonist cellular activity)
# Format: cell-based
# Conditions: compound at 3.6 μM, 2 hrs, IFNβ expression normalized against GAPDH by the 2^-ΔΔCT method, DMSO = 1.0
# In short: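 THP1 cells were seeded at 9×10^5 per well, incubated overnight, then treated with compound at 3.6 μM final (0.1% DMSO control) for 2 hrs at 37 °C. IFN-β mRNA was measured by SYBR Green qPCR, normalised to GAPDH by the 2^−ΔΔCT method, in triplicate.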
# T1 sequence (Q86WV6 whole entry R71H/G230A/H232R/R293Q, canonical isoform): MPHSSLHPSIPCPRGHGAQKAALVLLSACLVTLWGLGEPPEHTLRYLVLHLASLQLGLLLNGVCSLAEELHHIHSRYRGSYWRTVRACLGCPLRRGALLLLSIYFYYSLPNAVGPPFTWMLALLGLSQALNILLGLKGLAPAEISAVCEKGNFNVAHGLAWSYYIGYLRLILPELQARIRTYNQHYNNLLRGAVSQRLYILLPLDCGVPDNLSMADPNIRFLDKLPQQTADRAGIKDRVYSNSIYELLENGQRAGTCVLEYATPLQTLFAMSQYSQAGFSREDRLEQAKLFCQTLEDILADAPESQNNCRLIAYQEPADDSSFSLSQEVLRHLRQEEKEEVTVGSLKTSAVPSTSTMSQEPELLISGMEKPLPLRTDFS
row,SMILES,Relative mRNA INFβ/GAPDH THP 1
1,"COc1cc(CN(Cc2cn3c4c(c(F)c(F)cc4c2=O)OCCC3)[C@H]2CCCN(c3ccc(N)nc3)C2)ccn1 [Compound 47, (S)-7-(((1-(6-aminopyridin-3-yl)piperidin-3-yl)((2-methoxypyridin-4-yl)methyl)amino)methyl)-10,11-difluoro-3,4-dihydro-[1,4]oxazepino[2,3,4-ij]quinolin-8(2H)-one]",710.4
2,"COc1cc(CN(Cc2cn3c4c(c(F)c(F)cc4c2=O)OCC3(C)C)[C@H]2CCCN(c3ccc(N)nc3)C2)ccn1 [Compound 48, (S)-6-(((1-(6-aminopyridin-3-yl)piperidin-3-yl)((2-methoxypyridin-4-yl)methyl)amino)methyl)-9,10-difluoro-3,3-dimethyl-2H-[1,4]oxazino[2,3,4-ij]quinolin-7(3H)-one]",1202.3
3,"COc1cc(CN(Cc2cn3c4c(cc(F)c(F)c4c2=O)OCC3C)[C@H]2CCCN(c3ccc(N)nc3)C2)ccn1 (stereo partly drawn) [Compound 52, 6-((((S)-1-(6-aminopyridin-3-yl)piperidin-3-yl)((2-methoxypyridin-4-yl)methyl)amino)methyl)-8,9-difluoro-3-methyl-2H-[1,4]oxazino[2,3,4-ij]quinolin-7(3H)-one]",178.2
4,"COc1cc(CN(Cc2cn3c4c(c(F)c(F)cc4c2=O)OCC3C)[C@H]2CCCN(c3cnc4[nH]ncc4c3)C2)ccn1 (stereo partly drawn) [Compound 54, 6-((((S)-1-(1H-pyrazolo[3,4-b]pyridin-5-yl)piperidin-3-yl)((2-methoxypyridin-4-yl)methyl)amino)methyl)-9,10-difluoro-3-methyl-2H-[1,4]oxazino[2,3,4-ij]quinolin-7(3H)-one]",3.9
5,"COc1cc(CN(Cc2cn3c4c(c(Br)c(F)cc4c2=O)OCC3C)[C@H]2CCCN(c3ccc(N)nc3)C2)ccn1 (stereo partly drawn) [Compound 55, 6-((((S)-1-(6-aminopyridin-3-yl)piperidin-3-yl)((2-methoxypyridin-4-yl)methyl)amino)methyl)-10-bromo-9-fluoro-3-methyl-2H-[1,4]oxazino[2,3,4-ij]quinolin-7(3H)-one]",655.0
6,"COc1cc(CN(Cc2cn3c4c(c(-c5ccncc5)c(F)cc4c2=O)OCC3C)[C@H]2CCCN(c3ccc(N)nc3)C2)ccn1 (stereo partly drawn) [Compound 56, 6-((((S)-1-(6-aminopyridin-3-yl)piperidin-3-yl)((2-methoxypyridin-4-yl)methyl)amino)methyl)-9-fluoro-3-methyl-10-(pyridin-4-yl)-2H-[1,4]oxazino[2,3,4-ij]quinolin-7(3H)-one]",366.2

# More lines, now with the values ahead:
row,Relative mRNA INFβ/GAPDH THP 1,SMILES
1,5276.2,"COc1cc(CN(Cc2cn3c4c(c(F)c(F)cc4c2=O)OC2(CCC2)C3)[C@H]2CCCN(c3ccc(N)nc3)C2)ccn1 [Compound 49, (S)-6-(((1-(6-aminopyridin-3-yl)piperidin-3-yl)((2-methoxypyridin-4-yl)methyl)amino)methyl)-9,10-difluorospiro[[1,4]oxazino[2,3,4-ij]quinoline-2,1′-cyclobutan]-7(3H)-one]"
2,6723.5,"COc1cc(CN(Cc2cn3c4c(c(F)c(F)cc4c2=O)OC(C)(C)C3)[C@H]2CCCN(c3ccc(N)nc3)C2)ccn1 [Compound 50, (S)-6-(((1-(6-aminopyridin-3-yl)piperidin-3-yl)((2-methoxypyridin-4-yl)methyl)amino)methyl)-9,10-difluoro-2,2-dimethyl-2H-[1,4]oxazino[2,3,4-ij]quinolin-7(3H)-one]"
3,7257.8,"COc1cc(CN(Cc2cn3c4c(c(F)c(F)cc4c2=O)OC(C)C3)[C@H]2CCCN(c3ccc(N)nc3)C2)ccn1 (stereo partly drawn) [Compound 51, 6-((((S)-1-(6-aminopyridin-3-yl)piperidin-3-yl)((2-methoxypyridin-4-yl)methyl)amino)methyl)-9,10-difluoro-2-methyl-2H-[1,4]oxazino[2,3,4-ij]quinolin-7(3H)-one]"
